These results are taken from patent publication US7217697B2, “Glucopyranosyloxypyrazole derivative medicinal composition containing the same medicinal use thereof and intermediate therefor” (Kissei Pharmaceutical Co., Ltd., priority 2001, dated 2007).

The target of series [1] is T1, human SGLT1 (Homo sapiens, UniProt P13866).
T1 construct: expressed in transfected cells
T1 sequence (P13866 1-664): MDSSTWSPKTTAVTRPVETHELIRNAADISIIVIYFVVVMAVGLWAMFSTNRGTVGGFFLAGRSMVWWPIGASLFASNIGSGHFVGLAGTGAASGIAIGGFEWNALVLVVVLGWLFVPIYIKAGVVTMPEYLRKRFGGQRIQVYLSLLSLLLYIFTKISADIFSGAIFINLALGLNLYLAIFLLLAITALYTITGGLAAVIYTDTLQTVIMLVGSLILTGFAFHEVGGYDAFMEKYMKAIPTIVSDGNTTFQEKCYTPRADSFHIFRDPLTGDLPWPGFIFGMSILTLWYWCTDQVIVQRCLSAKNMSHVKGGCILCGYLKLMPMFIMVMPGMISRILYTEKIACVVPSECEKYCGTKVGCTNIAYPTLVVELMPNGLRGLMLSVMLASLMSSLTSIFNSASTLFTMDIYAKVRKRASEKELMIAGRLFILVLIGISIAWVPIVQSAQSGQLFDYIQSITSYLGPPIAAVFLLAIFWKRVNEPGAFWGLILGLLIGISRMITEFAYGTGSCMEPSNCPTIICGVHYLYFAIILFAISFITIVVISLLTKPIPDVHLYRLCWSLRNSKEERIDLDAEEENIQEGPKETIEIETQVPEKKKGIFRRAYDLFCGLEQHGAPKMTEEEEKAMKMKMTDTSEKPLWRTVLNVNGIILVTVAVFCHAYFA
Description: Assay for inhibitory effects on human SGLT1 activity (uptake of methyl-α-D-glucopyranoside). Type of series: cell-based. The following applies: CS1-5-11D cells (CHO-K1 stably expressing human SGLT1); uptake of 1 mM 14C-labeled α-MG, 37° C., 1 hour. The procedure: Assay for Inhibitory Effects on Human SGLT1 Activity
1) Cloning and Construction of the Vector Expressing Human SGLT1
The cDNA library was prepared for PCR amplification by reverse transcription from total RNA deprived from human small intestine (Ori gene) using oligo-dT as a primer. Using this cDNA library as a template, the DNA fragment coding 1 to 2005 bp of human SGLT1 (ACCESSION: M24847), which was reported by Hediger et al., was amplified by PCR method and inserted into the multi-cloning site of pcDNA3.1(−) (Invitrogen). The DNA sequence inserted was perfectly matched to the previously reported sequence of human SGLT1.
2) Establishment of Cell Line Stably Expressing Human SGLT1
The expression vector of human SGLT1 was digested by Sca I into a linear DNA. The linear DNA was transfected into CHO-K1 cells by means of lipofection (Effectene Transfection Reagent: QIAGEN). Neomycin resistant cell lines were selected by culture in the medium containing G418 (1 mg/mL, LIFE TECHNOLOGIES), and then the activity against the uptake of methyl-α-D-glucopyranoside was measured by the method described below. […] CS1-5–11D cells were cultured in the presence of G418 at 200 μg/mL.
3) Measurement of the Inhibitory Activity Against the Uptake of methyl-α-D-glucopyranoside (α-MG)
CS1-5-11D cells were seeded into a 96-well culture plate at a density of 3×10^4 cells/well and cultured for 2 days, and were used in the uptake assay. A mixture of non-labeled (Sigma) and ^14C-labeled α-MG (Amersham Pharmcia Biotec) added to the uptake buffer (pH 7.4; containing 140 mM sodium chloride, 2 mM potassium chloride, 1 mM calcium chloride, 1 mM magnesium chloride, 10 mM 2-[4-(2-hydroxyethyl)-1-piperazinyl]ethane sulfonic acid, and 5 mM tris(hydroxymethyl)aminomethane) at the final concentration of 1 mM. A test compound was dissolved in dimethyl sulfoxide, and then appropriately diluted with distilled water. The test compound solution was added to the uptake buffer containing 1 mM α-MG, and designated as a measurement buffer. For the control group, the measurement buffer without any test compound was prepared. For measuring the basal uptake, a basal buffer which contains 140 mM chorine chloride instead of 140 mM sodium chloride was prepared. After removing the culture medium of CS1-5-11D cells, 180 μL of the pre-treatment buffer (the uptake buffer not containing α-MG) was added to each well and incubated at 37° C. for 10 minutes. After repeating the same treatment, the pre-treatment buffer was removed. To each well was added 75 μL of the measurement buffer or the basal buffer was added and incubated at 37° C. for 1 hour. After removing the measurement buffer, cells were washed twice with 180 μL per well of the washing buffer (the basal buffer containing 10 mM non-labeled α-MG). The cells were solubilized by 75 μL per well of 0.2 mol/L sodium hydroxide. The cell lysates were transferred into PicoPlates (Packard), and then added 150 μL of MicroScint-40 (Packard) and mixed. Radioactivity was measured by means of micro-scintillation counter TopCount (Packard). One hundred % was set to the difference between the uptake in the control group and the basal uptake, and the uptake of methyl α-D-glucopyranoside at each drug concentration were calculated. The drug concentration, at which 50% uptake of methyl α-D-glucopyranoside was inhibited (IC50 value), was calculated using logit plot.

Series [2] relates to diabetic rats. The series can be described thus: Assay for inhibitory effects on blood glucose level increase in rats (liquid meal tolerance test). Type of series: in vivo. The conditions noted are these: diabetic rats (nicotinamide/streptozotocin), 10 mg/kg orally, liquid meal 15 kcal/kg, mean±S.E. The method, then:
Assay for Inhibitory Effects on Blood Glucose Level Increase in Rats
1) Preparation of Diabetic Rat Model
Ten weeks old rats were injected nicotinamide (230 mg/kg) intraperitoneally. Fifteen minutes after injection, they were injected streptozotocin (65 mg/kg) intravenously from tail vain under anesthesia with ether. Two weeks later, rats were fasted for 5 hours and then oral glucose tolerance test (2 g/kg) was done.
2) Liquid Meal Tolerance Test
After 16 hours fasted, the diabetic rats were orally administered a test compound (10 mg/kg), which was suspended with 0.5% sodium carboxymethylcellulose (CMC), in the drug-treating group, or 0.5% sodium carboxymethylcellulose (CMC) alone in a control group. Immediately after the compound administration, 15 kcal/kg of liquid meal (No. 038, Conrol diet, assorted with dextrin and maltose; Oriental Yeast Co., Ltd.) was loaded orally. The blood was collected from tail artery immediately before (0 h), at 0.5 and 1 hour after administration, and treated with heparin immediately. The blood was centrifuged, and the plasma was collected to quantify the plasma glucose concentration. The values in the table are presented as the mean±S.E.

Series [3] deals with Male C57BL/6J mice. Description: Acute toxicity test. Type of series: in vivo. The conditions noted are these: n=5, oral 1 g/kg, observed for 48 hours. The method, then: Male C57BL/6J mice (CLEA Japan, Inc.; 17 weeks old, 20–23 g, n=5) were fasted for 4 hours.

SMILES strings stand for the structures.

`CC(C)c1[nH]nc(O[C@@H]2O[C@H](CO)[C@@H](O)[C@H](O)[C@H]2O)c1Cc1ccccc1OCc1ccccc1` [Example 2, 4-(2-Benzyloxybenzyl)-3-(β-D-glucopyranosyloxy)-5-isopropyl-1H-pyrazole]: in series [1], the concentration for half-maximal inhibition (IC50) stood at 18 nM. For the same compound, the results for the Plasma glucose concentration in series [2] (0 h (pretreatment)), in series [2] (0.5 h after administration) and in series [2] (1 h after administration) were 126 ± 7 mg/dL, 194 ± 7 mg/dL and 219 ± 16 mg/dL, respectively. In addition, the Number of death in series [3] is given as 0/5. In series [1], `CC(C)c1c(Cc2ccccc2OCc2ccccc2)c(O[C@@H]2O[C@H](CO)[C@@H](O)[C@H](O)[C@H]2O)nn1CCO` [Example 9, 4-(2-Benzyloxybenzyl)-3-(β-D-glucopyranosyloxy)-1-(2-hydroxyethyl)-5-isopropyl-1H-pyrazole] registered an IC50 of 8 nM. In series [1], `OCCn1nc(O[C@@H]2O[C@H](CO)[C@@H](O)[C@H](O)[C@H]2O)c(Cc2ccccc2OCc2ccccc2)c1C(F)(F)F` [Example 11, 4-(2-Benzyloxybenzyl)-3-(β-D-glucopyranosyloxy)-1-(2-hydroxyethyl)-5-trifluoromethyl-1H-pyrazole] registered a half-inhibitory concentration (IC50) of 13 nM. In series [1], `CC(C)c1[nH]nc(O[C@@H]2O[C@H](CO)[C@@H](O)[C@H](O)[C@H]2O)c1Cc1ccccc1OCc1cccc(O)c1` [Example 12, 3-(β-D-Glucopyranosyloxy)-4-[2-(3-hydroxybenzyloxy)benzyl]-5-isopropyl-1H-pyrazole] gave a half-inhibitory concentration (IC50) of 35 nM. On to `OCCCn1nc(O[C@@H]2O[C@H](CO)[C@@H](O)[C@H](O)[C@H]2O)c(Cc2ccccc2OCc2ccccc2)c1C(F)(F)F` [Example 13, 4-(2-Benzyloxybenzyl)-3-(β-D-glucopyranosyloxy)-1-(3-hydroxypropyl)-5-trifluoromethyl-1H-pyrazole], for which half-maximal inhibition in series [1] (IC50) required 30 nM. `CC(C)c1[nH]nc(O[C@@H]2O[C@H](CO)[C@@H](O)[C@H](O)[C@H]2O)c1Cc1ccccc1OCc1cccc(Cl)c1` [Example 15, 4-[2-(3-Chlorobenzyloxy)benzyl]-3-(β-D-glucopyranosyloxy)-5-isopropyl-1H-pyrazole] registered a 50% inhibitory concentration (IC50) in series [1] of 1 nM.

In series [1], `CCc1c(Cc2ccccc2OCc2ccccc2)c(O[C@@H]2O[C@H](CO)[C@@H](O)[C@H](O)[C@H]2O)nn1CCO` [Example 19, 4-(2-Benzyloxybenzyl)-5-ethyl-3-(β-D-glucopyranosyloxy)-1-(2-hydroxyethyl)-1H-pyrazole] had an IC50 of 80 nM. In series [1], `OC[C@H]1O[C@@H](Oc2n[nH]c(C(F)(F)F)c2Cc2ccccc2OCc2ccccc2)[C@H](O)[C@@H](O)[C@@H]1O` [Example 21, 4-(2-Benzyloxybenzyl)-3-(β-D-glucopyranosyloxy)-5-trifluoromethyl-1H-pyrazole] returned a concentration for half-maximal inhibition (IC50) of 14 nM. Regarding `CC(C)c1[nH]nc(O[C@@H]2O[C@H](CO)[C@@H](O)[C@H](O)[C@H]2O)c1Cc1ccccc1OC1CCCCCC1` [Example 51, 4-(2-Cycloheptyloxybenzyl)-3-(β-D-glucopyranosyloxy)-5-isopropyl-1H-pyrazole], the IC50 in series [1] came out at 194 nM.
